# Test results: patent US11214803B2, “Modulators of YAP1 expression” (Ionis Pharmaceuticals, Inc., priority 2019, dated 2022)
# Strand notation (5' to 3'): a small letter for the sugar, then the base; units joined by * are phosphorothioate-linked, units joined directly phosphodiester-linked; [ ] holds rarer units or linkages, { } end groups; capitals alone tell only the bases. k = constrained ethyl (cEt); [5mC] = 5-methylcytosine; d = 2'-deoxy (DNA)
# Tested on: Yap1 mRNA
# Assay: Antisense inhibition of human Yap1 in A-431 cells by cEt gapmers, single dose (Example 3, RTS36584)
# Format: cell-based
# Conditions: Table 8; A-431 cells, 5,000 cells per well, free uptake, 2,000 nM, approximately 48 hours; RTS36584; normalized to RIBOGREEN; Yap1 mRNA relative to untreated control cells
# Procedure, shortened: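 Single-dose free-uptake screen of 3-10-3 cEt gapmers in A-431 cells at 2,000 nM over about 48 h. Values are % untreated control Yap1 mRNA.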
row,Substance,YAP1 (% UTC)
1,958359 (antisense kT*kG*k[5mC]*dA*dT*d[5mC]*dA*dG*dT*dA*d[5mC]*dT*dG*kG*k[5mC]*k[5mC]) [Compound 958359],117
2,958410 (antisense kT*kT*kT*dA*d[5mC]*d[5mC]*dA*dA*dA*dA*d[5mC]*dG*dA*kG*kG*kG) [Compound 958410],70
3,958357 (antisense k[5mC]*kG*kG*d[5mC]*dT*dT*dG*dA*dA*dG*dA*dA*dG*kG*kA*kG) [Compound 958357],12

# Same assay, conditions: Table 9; A-431 cells, 5,000 cells per well, free uptake, 2,000 nM, approximately 48 hours; RTS36584; normalized to RIBOGREEN; Yap1 mRNA relative to untreated control cells
row,Substance,YAP1 (% UTC)
1,958726 (antisense k[5mC]*kT*kG*dT*d[5mC]*dA*dG*dT*dT*dA*dT*d[5mC]*d[5mC]*kT*kA*kT) [Compound 958726],3
2,958746 (antisense kG*kT*kT*dA*dT*d[5mC]*d[5mC]*dT*d[5mC]*dT*dA*dT*dA*kG*kT*k[5mC]) [Compound 958746],22
3,958671 (k[5mC]*kA*kT*dT*dA*dT*dA*dT*dG*dG*d[5mC]*dA*d[5mC]*k[5mC]*k[5mC]*kA; antisense) [Compound 958671],19

# Same assay, conditions: Table 10; A-431 cells, 5,000 cells per well, free uptake, 2,000 nM oligonucleotide, approx. 48 hours; primer probe set RTS36584; Yap1 mRNA normalized to RIBOGREEN, percent of untreated control
row,Substance,YAP1 (% UTC)
1,958472 (antisense kT*k[5mC]*k[5mC]*dT*dT*dA*dG*dA*dT*d[5mC]*d[5mC]*dT*dT*k[5mC]*kA*k[5mC]) [Compound 958472],5
2,958602 (kT*kG*k[5mC]*d[5mC]*dA*dT*dG*dT*dT*d[5mC]*d[5mC]*dA*dT*kA*kT*kA; antisense) [Compound 958602],16
3,958502 (k[5mC]*kT*kA*dT*dT*dA*dA*d[5mC]*dA*dG*dA*dT*dT*k[5mC]*kA*k[5mC]; antisense) [Compound 958502],13

# Same assay, conditions: Table 11; A-431 cells, 5,000 cells per well, free uptake, 2,000 nM oligonucleotide, approx. 48 hours; primer probe set RTS36584; Yap1 mRNA normalized to RIBOGREEN, percent of untreated control
row,Substance,YAP1 (% UTC)
1,958658 (kA*k[5mC]*kA*dG*dT*dA*dT*dA*dA*dT*dA*dT*d[5mC]*k[5mC]*kT*kA; antisense) [Compound 958658],6
2,958668 (kG*kT*kG*dA*dT*d[5mC]*dT*dG*dT*dG*dA*dG*dA*kG*kG*kT; antisense) [Compound 958668],2
3,958628 (antisense kG*k[5mC]*kT*dA*dA*d[5mC]*dT*dA*d[5mC]*dA*dT*dT*dG*k[5mC]*kA*kG) [Compound 958628],81
4,958763 (antisense k[5mC]*kA*k[5mC]*dA*dA*dT*dA*d[5mC]*dA*dA*dG*dA*dT*kG*k[5mC]*kA) [Compound 958763],3

# Same assay, conditions: Table 12; A-431 cells, 5,000 cells per well, free uptake, 2,000 nM modified oligonucleotide, approx. 48 hours; RTS36584; normalized to RIBOGREEN; Yap1 mRNA relative to untreated control cells
row,Substance,YAP1 (% UTC)
1,958749 (antisense k[5mC]*k[5mC]*kA*d[5mC]*dA*dA*dG*dG*dG*d[5mC]*dA*dG*dT*kA*k[5mC]*kG) [Compound 958749],51
2,958684 (kG*k[5mC]*kT*dG*dA*dA*dG*dA*d[5mC]*dG*dG*d[5mC]*d[5mC]*k[5mC]*kT*kT; antisense) [Compound 958684],70
3,958484 (antisense kG*k[5mC]*kA*dG*d[5mC]*dA*dA*dT*dG*dG*dA*d[5mC]*dA*kA*kG*kG) [Compound 958484],2

# Same assay, conditions: Table 13; A-431 cells, 5,000 cells per well, free uptake, 2,000 nM modified oligonucleotide, approx. 48 hours; RTS36584; normalized to RIBOGREEN; Yap1 mRNA relative to untreated control cells
row,Substance,YAP1 (% UTC)
1,958710 (antisense kA*kG*kG*dG*dA*dA*d[5mC]*d[5mC]*d[5mC]*dT*dT*dG*dG*k[5mC]*kT*kA) [Compound 958710],77
2,958705 (antisense kG*kG*k[5mC]*d[5mC]*dA*dT*d[5mC]*dA*dA*dT*dA*dA*dA*kG*kA*k[5mC]) [Compound 958705],112
3,958780 (antisense kT*k[5mC]*kA*dA*d[5mC]*dT*dA*d[5mC]*dT*dT*dT*dT*d[5mC]*kA*kG*k[5mC]) [Compound 958780],24
4,958445 (antisense kG*kG*k[5mC]*dT*dA*d[5mC]*dG*d[5mC]*d[5mC]*d[5mC]*dG*dG*dA*k[5mC]*kG*k[5mC]) [Compound 958445],63
5,958790 (antisense kG*kA*kA*dA*dA*dG*dA*d[5mC]*dG*dA*d[5mC]*dA*d[5mC]*kA*kG*kT) [Compound 958790],68

# Same assay, conditions: Table 26; Yap1 mRNA by 3-10-3 cEt gapmers targeting SEQ ID NO.: 1, and 2; percent of untreated control
row,Substance,YAP1 (% UTC)
1,1074220 (antisense kA*kA*kT*dG*dA*dG*d[5mC]*dT*d[5mC]*dG*dA*dA*d[5mC]*kA*kT*kG) [compound 1074220],22
2,1076012 (kA*kA*kT*dA*dT*dA*dA*dA*d[5mC]*dA*dA*dT*dA*kG*k[5mC]*kG; antisense) [compound 1076012],34
3,1076428 (kA*kT*kT*dA*dA*dA*dA*dA*dG*dA*dA*dG*d[5mC]*kA*k[5mC]*kG; antisense) [compound 1076428],53

# Same assay, conditions: Table 27; Yap1 mRNA by 3-10-3 cEt gapmers targeting SEQ ID NO.: 1, and 2; percent of untreated control
row,Substance,YAP1 (% UTC)
1,1075405 (antisense k[5mC]*kT*kA*dT*dA*dT*dA*dA*d[5mC]*d[5mC]*dT*dG*dA*kA*k[5mC]*kT) [compound 1075405],84
2,1075917 (antisense kA*kG*k[5mC]*dA*dA*dA*dA*dA*dG*dT*dG*dA*dT*kA*kT*kG) [compound 1075917],55
3,1074349 (antisense k[5mC]*kT*kG*dT*dA*d[5mC]*dT*d[5mC]*dT*d[5mC]*dA*dT*d[5mC]*kT*k[5mC]*kG) [compound 1074349],30

# Same assay, conditions: Table 28; Yap1 mRNA as percent of untreated control; 3-10-3 cEt gapmers targeting SEQ ID NO.: 1, and 2
row,Substance,YAP1 (% UTC)
1,1075918 (antisense k[5mC]*kT*kT*dA*dA*dA*d[5mC]*dT*dA*dA*d[5mC]*dT*dG*kT*kT*kG) [compound 1075918],82
2,1074734 (kT*kG*k[5mC]*d[5mC]*dA*dG*dG*dT*dA*dT*d[5mC]*dA*d[5mC]*kA*kG*kT; antisense) [compound 1074734],51
3,1075598 (antisense kA*kA*kT*dT*dA*dA*d[5mC]*dA*dT*dT*dT*dG*d[5mC]*k[5mC]*k[5mC]*kG) [compound 1075598],62
4,1075438 (antisense k[5mC]*kA*kT*dA*dT*dT*dA*dG*dA*dG*dT*dT*dG*kA*kG*kG) [compound 1075438],22

# Same assay, conditions: Table 29; Yap1 mRNA as percent of untreated control; 3-10-3 cEt gapmers targeting SEQ ID NO.: 1, and 2
row,Substance,YAP1 (% UTC)
1,1075663 (antisense k[5mC]*kT*kA*dA*dA*dT*dA*dG*dG*dT*dG*dG*dT*kT*kA*kT) [compound 1075663],80
2,1074831 (k[5mC]*kG*kA*dG*dG*dA*dT*dA*dA*dA*dA*dT*d[5mC]*k[5mC]*kA*k[5mC]; antisense) [compound 1074831],35

# Same assay, conditions: Table 34; Yap1 mRNA as percent of untreated control; 3-10-3 cEt gapmers targeting SEQ ID NO: 1 and 2; single dose
row,Substance,YAP1 (% UTC)
1,1075540 (kG*k[5mC]*kT*dT*dA*dA*dG*dG*dG*dA*dT*dG*dG*kA*kA*k[5mC]; antisense) [compound 1075540],78
2,1075796 (kA*kG*kT*dA*dA*dT*dT*dA*dT*dA*dT*dA*d[5mC]*k[5mC]*k[5mC]*kA; antisense) [compound 1075796],64

# Same assay, conditions: Table 35; Yap1 mRNA as percent of untreated control; 3-10-3 cEt gapmers targeting SEQ ID NO: 1 and 2; single dose
row,Substance,YAP1 (% UTC)
1,1075125 (k[5mC]*kT*kT*dA*dA*dG*dG*dT*dA*d[5mC]*dA*dA*dG*kG*k[5mC]*kA; antisense) [compound 1075125],84
2,1075573 (antisense kA*kA*kG*dG*dA*dA*d[5mC]*d[5mC]*dT*dT*d[5mC]*dT*dG*kT*kG*kT) [compound 1075573],72
3,1076501 (k[5mC]*kA*kT*dA*dA*d[5mC]*dA*d[5mC]*dT*dT*dA*dA*dG*kG*kT*kG; antisense) [compound 1076501],97
4,1074997 (antisense kG*k[5mC]*k[5mC]*dG*d[5mC]*dG*dA*dG*dG*dA*dA*dA*dA*kT*kA*kA) [compound 1074997],119
5,1075925 (antisense kA*kA*k[5mC]*d[5mC]*dT*dA*dT*dA*dT*dT*dA*dT*dT*kT*kG*k[5mC]) [compound 1075925],28
